Data set [1] concerns the target T1, m1 receptor (Homo sapiens, UniProt P11229).
T1 construct: expressed in transfected cells; host or cells: NIH 3T3 (ATCC CRL 1658)
T1 sequence (P11229 1-460): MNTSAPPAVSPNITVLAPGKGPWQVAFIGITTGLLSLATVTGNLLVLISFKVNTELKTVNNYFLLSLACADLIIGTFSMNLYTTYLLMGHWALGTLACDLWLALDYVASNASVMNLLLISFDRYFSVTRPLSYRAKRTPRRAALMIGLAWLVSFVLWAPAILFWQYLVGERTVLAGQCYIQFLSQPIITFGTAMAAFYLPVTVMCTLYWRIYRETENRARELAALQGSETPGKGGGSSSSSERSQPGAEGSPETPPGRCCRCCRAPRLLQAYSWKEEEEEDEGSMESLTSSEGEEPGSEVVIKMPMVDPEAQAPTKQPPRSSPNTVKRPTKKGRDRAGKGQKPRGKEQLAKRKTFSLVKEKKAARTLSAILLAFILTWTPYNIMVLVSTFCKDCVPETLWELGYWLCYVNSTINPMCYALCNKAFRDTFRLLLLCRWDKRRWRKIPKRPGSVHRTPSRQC
The data set can be described thus: R-SAT / NIH 3T3 cells transfected with m1 muscarinic receptor. The data set is classed as cell-based. Particulars: NIH3T3; m1; compound at 1.5 μM; maximum = response to 10 μM carbachol; read-out: Cellular response as a percentage of the maximum response of the cells. The protocol:
Cell amplification is detected as increased levels of a marker also expressed by the cells.
The cells were treated with trypsin-EDTA, spun down and plated at 2×10^6 per 15 cm dish in 20 m1 of DMEM containing 10% calf serum.
(§1) On day one, the cells were transfected using the Superfect transfection reagent (available from Qiagen, Valencia, Calif.) in accordance with the manufacturer's instructions. Receptor DNA, β-gal DNA (pSI-β-galactosidase available from Promega, Madison, Wis.), chimeric Gq-i5 DNA for the m2 and m4 receptor subtype assays, and salmon sperm DNA (available from Sigma, St. Louis, […].) as filler to a total of 20 μg DNA was added per plate. Prior to addition to the plates, 60 μl Superfect was added to the DNA and mixed thoroughly by pipetting up and down several times. The mixture was incubated at room temperature for 10-15 minutes. The media were aspirated, and 12 ml fresh DMEM containing 10% calf serum and 50 units/m1 penicillin/streptomycin was added to the plates. The DNA-Superfect solution was mixed once more with a pipette and added to the plate which was swirled to distribute the DNA mixture evenly over the surface. The cells were incubated overnight at 37° C. and 5% CO2. After incubation, the media were aspirated and the plates were rinsed once with a 15 m1 volume of Hank's Buffered Saline. The plates were swirled to ensure thorough rinsing. 20 m1 fresh DMEM supplemented with 10% calf serum and 50 units/m1 penicillin/streptomycin was added to the plates. The cells were incubated for 24-48 hours until the plates were 100% confluent.
(§2) Assay of NIH 3T3 cells transfected with muscarinic receptor subtypes (general procedure) DMEM containing 2% Cyto-SF3 was heated at 37° C. in a water bath under sterile conditions. Sterile working stock solutions of test compounds to be assayed were prepared by diluting the compounds in DMEM to 8× the final concentration for testing. The compound (carbachol) to be included in the assay as a positive control was also diluted in DMEM to 8× the final concentration. 50 μL of the DMEM containing 2% Cyto-SF3 was added to each well of 96-well microtiter plates under sterile conditions. Then, 16 of compound solutions were added to the top wells of the plates, and dilution of the solutions was performed by taking 16 μl of the compound solutions from the top wells and pipetting them into the next row of wells. This procedure was repeated with each subsequent row of wells, except that 50 μl medium alone was added to the baseline control wells (the wells that contain medium and cells, but not test compounds) and plate control wells (wells containing medium, but not test compounds and cells). The plates were then placed in an incubator at 37° C. to equilibrate temperature and pH.
When the cell cultures had reached 100% confluence, the medium was aspirated and each plate was rinsed with 15 m1 Hank's Buffered Saline (HBS). The cells were left in the incubator for about 10-15 minutes until the HBS had turned slightly yellow. The HBS was then aspirated and 1 m1 trypsin was added to each plate and swirled so as to completely cover the plates. The edges of the plates were gently rapped several times to loosen the cells. After the cells had been dislodged from the surface, 8 m1 DMEM containing 10% calf serum and 50 units/m1 penicillin and 50 units/m1 streptomycin was added to inhibit the trypsin. The plates were rinsed with this medium, and the cells were pipetted into a tube. The cells were centrifuged at 1000 rpm for 5-10 min. in an IEC Centra CL2 centrifuge (produced by Sorvall). Afterwards, the medium was carefully aspirated so as not to dislodge the cells. The cell pellet was suspended in 1600 μl DMEM containing 10% calf serum and 50 units/m1 penicillin and 50 units/m1 streptomycin, after which 20 m1 DMEM supplemented with 2% Cyto-SF3 was added. 50 μl aliquots of this cell suspension was added to the wells of the 96-well microtiter plates prepared above (except for the plate control wells).

Data set [2] addresses T2, m5 receptor (Homo sapiens, UniProt P08912).
T2 construct: expressed in transfected cells; host or cells: NIH 3T3 (ATCC CRL 1658)
T2 sequence (P08912 1-532): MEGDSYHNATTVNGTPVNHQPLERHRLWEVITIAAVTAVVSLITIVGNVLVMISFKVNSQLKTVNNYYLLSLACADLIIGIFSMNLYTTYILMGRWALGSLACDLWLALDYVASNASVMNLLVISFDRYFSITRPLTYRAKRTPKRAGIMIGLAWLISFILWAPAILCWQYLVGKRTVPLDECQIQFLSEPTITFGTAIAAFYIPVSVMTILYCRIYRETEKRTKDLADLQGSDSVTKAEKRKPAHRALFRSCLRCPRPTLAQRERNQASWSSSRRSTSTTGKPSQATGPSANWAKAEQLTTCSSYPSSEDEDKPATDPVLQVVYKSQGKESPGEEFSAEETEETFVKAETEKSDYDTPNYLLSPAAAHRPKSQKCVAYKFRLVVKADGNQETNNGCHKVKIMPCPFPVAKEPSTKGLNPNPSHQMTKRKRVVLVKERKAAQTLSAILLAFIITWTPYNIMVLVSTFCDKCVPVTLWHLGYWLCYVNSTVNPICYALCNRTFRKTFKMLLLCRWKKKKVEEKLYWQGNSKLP
In words: R-SAT / NIH 3T3 cells transfected with m5 muscarinic receptor. The data set is classed as cell-based. Particulars: NIH3T3; m5; compound at 1.5 μM; maximum = response to 10 μM carbachol; read-out: Cellular response as a percentage of the maximum response of the cells.
From the text: (§3) A particularly convenient functional assay system is the receptor selection and amplification assay disclosed in U.S. Pat. No. 5,707,798 describing a method of screening for bioactive compounds by utilizing the ability of cells transfected with receptor DNA, e.g. coding for the different muscarinic subtypes, to amplify in the presence of a ligand of the receptor. Cell amplification is detected as increased levels of a marker also expressed by the cells.
(§4) Transfection of cells with muscarinic receptor DNAs (general procedure) NIH 3T3 cells (available from the American Type Culture Collection as ATCC CRL 1658) were grown at 37° C. in a humidified atmosphere (5% CO2) incubator in Dulbecco's modified Eagle's medium (DMEM) supplemented with 4.5 g/l glucose, 4 mM glutamine, 50 units/m1 penicillin, 50 units/m1 streptomycin (available from Advanced Biotechnologies, Inc., Gaithersburg, Md.) and 10% calf serum (available from Sigma, St. Louis, […].). The cells were treated with trypsin-EDTA, spun down and plated at 2×10^6 per 15 cm dish in 20 m1 of DMEM containing 10% calf serum.
(§5) The m1-m5 muscarinic receptor subtypes were cloned substantially as described by Bonner et al., Science 237, 1987, p. 527, and Bonner et al., Neuron 1, 1988, p. 403. For the m2 and m4 receptors, the cells were co-transfected with DNA encoding a chimera between the Gq protein and the five carboxy-terminal amino acids of the Gi protein (the Gq-i5 construct is described by Conklin et al., Nature 363, 1993, p.274).
as §1
as §2, with “The plates were then placed in an incubator at 37° C. to equilibrate temperature and pH.” left out

The target in data set [3] is T3, m3 receptor (Homo sapiens, UniProt P20309).
T3 construct: expressed in transfected cells; host or cells: NIH 3T3 (ATCC CRL 1658)
T3 sequence (P20309 whole entry): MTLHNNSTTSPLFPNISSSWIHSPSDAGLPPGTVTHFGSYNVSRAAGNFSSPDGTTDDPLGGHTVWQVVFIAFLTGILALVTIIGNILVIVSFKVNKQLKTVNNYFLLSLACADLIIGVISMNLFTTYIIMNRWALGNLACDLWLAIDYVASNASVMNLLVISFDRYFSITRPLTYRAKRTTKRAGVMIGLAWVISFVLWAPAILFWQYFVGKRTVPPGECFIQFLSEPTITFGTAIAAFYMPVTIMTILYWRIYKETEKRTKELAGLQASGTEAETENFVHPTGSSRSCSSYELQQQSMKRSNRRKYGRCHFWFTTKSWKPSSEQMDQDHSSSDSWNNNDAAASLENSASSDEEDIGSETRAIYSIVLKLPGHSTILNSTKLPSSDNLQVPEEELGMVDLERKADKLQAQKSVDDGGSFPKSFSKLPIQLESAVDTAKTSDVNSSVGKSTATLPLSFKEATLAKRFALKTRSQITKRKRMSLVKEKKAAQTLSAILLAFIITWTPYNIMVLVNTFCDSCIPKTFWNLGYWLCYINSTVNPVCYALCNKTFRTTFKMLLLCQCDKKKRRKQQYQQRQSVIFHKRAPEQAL
The data set can be described thus: R-SAT / NIH 3T3 cells transfected with m3 muscarinic receptor. The data set is classed as cell-based. The conditions noted are these: NIH3T3; m3; compound at 1.5 μM; maximum = response to 10 μM carbachol; read-out: Cellular response as a percentage of the maximum response of the cells.
From the text: as §3, §4, §5, §1
as §2, with “The plates were then placed in an incubator at 37° C. to equilibrate temperature and pH.” left out

The conditions of data set [4]: human, in vivo; cited from earlier work.

Each structure is given as a SMILES string.

Consider seven compounds from US7485651B2, “Compounds with activity on muscarinic receptors” (Acadia Pharmaceuticals, Inc., priority 1998, dated 2009).

For `CCCCC1CCN(CCCC(=O)c2ccccc2OCC)CC1` [B, 4-n-Butyl-1-[4-(2ethoxyphenyl)-4-oxo-1-butyl]piperidine], the Emax at 1.5 µM in data set [1] was 76%; in data set [2], -6%; in data set [3], 7%.

As for `CCCCC1CCN(CCCC(=O)c2ccccc2O)CC1` [C, 4-n-Butyl-1-[4-(2-hydroxyphenyl)-4-oxo-1-butyl]piperidine], the figures for the Emax at 1.5 µM in data set [1], in data set [2] and in data set [3] were 91%, 0% and 4%, respectively.

`CCCCC1CCN(CCCC(=O)c2cccc(C)c2C)CC1` [D, 4-n-Butyl-1-[4-(2,3-dimethylphenyl)-4-oxo-1-butyl]piperidine]: the results for the Emax at 1.5 µM in data set [1], in data set [2] and in data set [3] were 72%, 2% and 13%, respectively.

As for `CCCCC1CCN(CCCC(=O)c2ccc(C)cc2C)CC1` [E, 4-n-Butyl-1-[4-(2,4-dimethylphenyl)-4-oxo-1-butyl]piperidine], the values for the Emax at 1.5 µM in data set [1], in data set [2] and in data set [3] were 42%, -3% and 9%, respectively.

Regarding `CCCCC1CCN(CCCC(=O)c2ccccc2OC)CC1` [F, 4-n-Butyl-1-[4-(2-methoxyphenyl)-4-oxo1-butyl]piperidine], the results for the Emax at 1.5 µM in data set [1], in data set [2] and in data set [3] were 65%, 5% and 9%, respectively.

As to `CCCCC1CCN(CCCC(=O)c2ccccc2)CC1` [G, 4-n-Butyl-1-[4-phenyl-4-oxo-1-butyl]piperidine], the results for the Emax at 1.5 µM in data set [1], in data set [2] and in data set [3] were 66%, 7% and 16%, respectively.

For `Nc1c2c(nc3ccccc13)CCCC2` [Tacrine, 9-amino-1,2,3,4-tetrahydroacridine], in data set [4], the “patients with elevated liver transaminases (hepatotoxicity)” value is given as “about 30%” and the “patients with gastrointestinal side effects” value was “about a third”.
